Reference: US20160199434A1, “COMPOSITIONS AND METHODS FOR MODULATING DNA METHYLATION” (OHIO STATE INNOVATION FOUNDATION, priority 2013, published 2016)
Entries after “also recorded” stand apart in the source; their conditions may differ.

Tests used:
c-Myc = c-Myc expression (relative copy number) in human cervical tumors in animals; assay type: in vivo; conditions: animal models of human cervical tumors, 17.5 mg/kg (FIG. 7B)
Protocol: (§1) Animal models of human cervical tumors were untreated, treated with DMSO, treated with 5-AZA or treated with AKB-6899 (17.5 mg/kg).

DSP promoter = assay: CpG methylation of DSP promoter in lungs of normal mice; assay type: in vivo, mouse; conditions: i.p., three weeks (FIG. 14B)
Protocol: (§2) FIGS. 14A-14C show the effects of systemic administration of AKB-6899. Mice were treated three times per week for three weeks with either i.p. AKB-6899 or i.p. DMSO. The lungs were removed and assayed to determine DNMT mRNA expression, percent CpG methylation, and fold change in mRNA. […] The data was standardized to 1.0 by the DMSO levels of the respective gene expression, (n=4 lungs per condition).

[1] = system: panel of 14 common tumor suppressor genes; assay: mRNA expression of 14 tumor suppressor genes in H1703 cells; assay type: cell-based, human
Excerpt: FIGS. 12A-12D show the level of mRNA expression for a panel of 14 common tumor suppressor genes in two types of human lung cancer cells (i.e., H1703 squamous cell carcinoma in FIG. 12A and A549 adenocarcinoma in FIG. 12B). […] All of the tumor suppressor mRNAs were augmented in response to AKB-6899 but one, the CDKN1C gene in A549 adenocarcinoma cells, in which expression levels were 0.1 (AKB10) and 0.9 (AKB50) compared to DMSO standardized to 1.0. In FIGS. 12A-12B, the following apply: “1”=DMSO, “2”=AKB-6899 (10 μM), “3”=AKB-6899 (50 μM), and “4”=combination of Decitabine (5 μM)/PBA (2 mM). FIGS. 12C and 12D are raw values for mRNA expression of these 14 genes.

c-Myc promoter [2] = assay: Percent DNA methylation of c-Myc promoter in human cervical tumors in animals; assay type: in vivo; conditions: animal models of human cervical tumors, 17.5 mg/kg (FIG. 7A)
Protocol: as §1

[3] = system: desmoplakin (DSP) gene promoter; assay: Methylation-specific PCR of DSP promoter in MDA-MB-231 cells; assay type: cell-based, human
Protocol: FIGS. 3A-3E show the effect of AKB-6899 (25 μM) on methylation of the desmoplakin (DSP) gene promoter in PyMT breast cancer cells (3A), human MDA-MB-231 triple negative breast cancer cells (3B), human C8161.9 melanoma cells (3C), and human MCF-7 breast cancer cells (3D). In FIG. 3A, the DSP promoter was 100% unmethylated (AKB-6899) vs. 99.99% methylated (vehicle). In FIG. 3B, the DSP promoter was 99.62% unmethylated (AKB-6899) v. 99.89% (vehicle). In FIG. 3C, the DSP promoter was 99.90% unmethylated (AKB-6899) v. 42.04% (vehicle). In FIG. 3D, the DSP promoter was 92.48% unmethylated (AKB-6899) v. 98.48% (vehicle). In FIG. 3E, when compared to the vehicle (DMSO), treatment of PyMT cells with AKB-6899 increased DSP expression.
To determine whether the decrease in DNMT expression and the increase in DSP expression were relevant in human cancer, the level of desmoplakin expression in MDA-MB-231 human triple negative breast cancer cells was determined. […] (FIG. 3B).

[4] = system: human A375 melanoma cells; assay: Tumor growth of human A375 melanoma cells implanted in SCID mice; assay type: in vivo, mouse; conditions: 19 days after palpable tumor formation, AKB-6899 17.5 mg/kg, Docetaxel 30 mg/kg
Protocol: During treatment, tumor growth was determined. Animals were treated with one the following combinations: vehicle/vehicle, vehicle/AKB-6899 (17.5 mg/kg), Docetaxel (30 mg/kg)/vehicle, or Docetaxel/AKB-6899. 19 days after palpable tumor formation, the tumors in the mice receiving the vehicle/AKB-6899 combination had tumors that were 74% the size of control; the tumors in the mice receiving Docetaxel/vehicle combination had tumors that were 49% the size of control; and the tumors in the mice receiving the Docetaxel/AKB-6899 combination had tumors that were 13% the size of control.

c-Myc promoter [5] = assay: Percent CpG methylation of c-Myc promoter in HeLa cells; assay type: cell-based, human; conditions: 5 or 25 μM, compared to DMSO and PBA (FIG. 6A)
Protocol: HeLa cervical cancer cells were left untreated, were treated with DMSO, were treated with 5-AZA, were treated with AKB-6899 (5 or 25 μM), or were treated with PBA (2 mM).

[6] = system: 23 different gene promoters; assay: Percent methylation of 23 gene promoters in H1703 squamous cell carcinoma; assay type: cell-based, human; conditions: H1703, 10 μM and 50 μM, compared to DMSO
Protocol: FIGS. 11A-11D show the percent methylation for 23 different gene promoters in two types of human lung cancer cells—FIGS. 11A and 11B are directed at H1703 squamous cell carcinoma and FIG. 11C and FIG. 11D are directed at A549 adenocarcinoma. DMSO was used as a vehicle and was used as a control. […] The Dec/PBA condition represents a combination of 5 μM Decitabine (5-aza-2′deoxycytidine (5-AZA), which is a demethylating agent) and 2 mM […] (PBA, HDAC inhibitor). In all promoters tested, and in both types of lung cancer, AKB-6899 demethylated the gene promoters such that the level of % DNA methylation following AKB-6899 treatment was below the level of % DNA methylation of the DMSO-treated control cells (DMSO).

DNMT-1 = DNMT-1 mRNA expression in lungs of normal mice after systemic administration; assay type: in vivo, mouse; conditions: i.p. 17.5 mg/kg three times per week for three weeks, vs DMSO
Protocol: as §2

DNMT-3a [7] = assay: DNMT-3a mRNA expression in lungs of normal mice after systemic administration; assay type: in vivo, mouse; conditions: i.p. 17.5 mg/kg three times per week for three weeks, vs DMSO
Protocol: as §2

DNMT-3a [8] = assay: DNMT-3a transcription in A549 lung cancer cells; assay type: cell-based, human; conditions: A549 cells (FIG. 10B)
Excerpt: (§3) In FIG. 10A, AKB-6899 inhibited DNMT-1, DNMT-3a, and DNMT-3b transcription in a dose-dependent manner in human squamous cell carcinoma lung cancer cells (H1703), in vitro. The DMSO-treated DNMT mRNAs are over 1.0, meaning the level of expression is higher than the housekeeping control gene, CAP1. In FIG. 10B, AKB-6899 inhibited DNMT-3a and DNMT-3b transcription in human adenocarcinoma lung cancer cells (A549). The DMSO-treated DNMT mRNAs are under 1.0, meaning the level of expression is lower than the housekeeping control gene, CAP1.

DNMT-3a [9] = assay: DNMT-3a transcription in H1703 lung cancer cells; assay type: cell-based, human; conditions: H1703 cells in vitro, dose-dependent (FIG. 10A)
Excerpt: as §3

## O=C(O)CNC(=O)c1ncc(-c2cccc(F)c2)cc1O [AKB-6899, {[5-(3-Fluorophenyl)-3-hydroxypyridine-2-carbonyl]amino}acetic acid]
c-Myc
  c-Myc expression: inhibited
DSP promoter
  methylation of DSP promoter in lungs: demethylated
[1]; H1703, 10 μM and 50 μM, vs DMSO
  tumor suppressor mRNA expression: augmented
[1]; H1703 vs A549, Decitabine 5 μM/PBA 2 mM
  induction of mRNA expression in H1703 compared with A549: more effective
c-Myc promoter [2]
  DNA methylation of c-Myc promoter: completely demethylated
[3]; MDA-MB-231 cells
  methylation state of DSP promoter CpG islands (in words): almost entire demethylation; also recorded: near complete
[3]; MDA-MB-231 human triple negative breast cancer cells
  desmoplakin promoter methylation after treatment: 0.38%
[3]; MDA-MB-231 triple negative breast cancer cells, 25 μM (FIG. 3B)
  DSP promoter unmethylated: 99.62%
[4]
  tumor size relative to control: 74%
c-Myc promoter [5]
  demethylation of c-Myc promoter (percent CpG methylation): increase in demethylation
[6]
  percent DNA methylation of 23 gene promoters: decreased the percent of DNA methylation in a dose response fashion
DNMT-1
  DNMT-1 expression in lungs: inhibited
DNMT-3a [7]
  DNMT-3a expression in lungs: inhibited
DNMT-3a [8]
  DNMT-3a transcription: inhibited
DNMT-3a [9]
  DNMT-3a transcription: inhibited
